Earlier results, collected in US11555049B2, “Method for separation and purification of n-acetylglucosamine” (JIANGSU HARVERS BIOTECH CO., LTD., priority 2020, dated 2023).
In brackets after ≈: the same amount, converted by molar mass.

- solubility in water (0° C. water): 140 mg/mL (≈ 633 mM)
- solubility in organic solvents (organic solvents such as ethanol and propanol): insoluble
SMILES: CC(=O)N[C@H]1C(O)O[C@H](CO)[C@@H](O)[C@@H]1O (some centres unmarked) [GlcNAc, N-acetyl-glucosamine]
